Measurements as given in the NIST ThermoML archive (doi:10.1021/je5004719).
Numbers after ± are expanded uncertainties.

Conditions: 101.33 kPa, Liquid; for speed of sound: Sing-around technique in a fixed-path interferometer; for mass density: Vibrating tube method

Row | SMILES | speed of sound (298.15 K) [m/s] | mass density (298.15 K) [kg/m3] | speed of sound (303.15 K) [m/s] | mass density (303.15 K) [kg/m3] | speed of sound (308.15 K) [m/s] | mass density (308.15 K) [kg/m3]
1 | Cc1ccccc1 [toluene] | 1304.6 ± 0.8 | 862.18 ± 1 | 1283.2 ± 0.8 | 857.51 ± 1 | 1261.8 ± 0.8 | 852.82 ± 1
2 | Cc1ccccc1C [1,2-dimethylbenzene] | 1346.2 ± 0.7 | 875.91 ± 1 | 1326.2 ± 0.7 | 871.7 ± 1 | 1306.1 ± 0.7 | 867.48 ± 1
3 | c1ccccc1 [benzene] | 1299.4 ± 0.8 | 873.54 ± 1 | 1276.1 ± 0.77 | 868.2 ± 1 | 1252.9 ± 0.76 | 862.84 ± 1
4 | C1CCOCC1 [tetrahydropyran] | 1269.8 ± 0.8 | 879.13 ± 1 | 1246.8 ± 0.8 | 873.99 ± 1 | 1224.4 ± 0.8 | 868.83 ± 1
5 | Cc1ccccc1Cl [2-chlorotoluene] | 1298.7 ± 1 | 1077.3 ± 1 | 1280.7 ± 1 | 1072.5 ± 1 | 1262.7 ± 1 | 1067.6 ± 1
